CC(C)(C)OC(=O)N1CCC[C@H]1C(=O)O
solubility (mole fraction)
Conditions	283.15 K	288.15 K	293.15 K	298.15 K	303.15 K	313.15 K	323.15 K
in 2-butanone	0.0371	–	0.0532	–	0.0687	0.0925	0.125
in acetone	0.0457	–	0.06	–	0.075	0.0965	0.129
in acetonitrile	0.0113	–	0.0166	–	0.0247	0.0379	0.054
in dichloromethane	0.0896	0.098	0.107	0.116	0.125	–	–
in ethanol	0.0968	–	0.111	–	0.133	0.172	0.215
in ethyl acetate	0.0217	–	0.0303	–	0.0392	0.0494	0.0606
in isobutanol	0.072	–	0.0942	–	0.12	0.143	0.166
in isopropanol	0.0971	–	0.114	–	0.134	0.168	0.208
in methanol	0.115	–	0.15	–	0.196	0.24	0.297
in methyl acetate	0.0252	–	0.0339	–	0.0436	0.055	0.0698
in n-butanol	0.0889	–	0.103	–	0.126	0.149	0.178
in n-propanol	0.0944	–	0.109	–	0.132	0.16	0.19
in sec-butanol	0.0968	–	0.127	–	0.157	0.193	0.232
in water	6.6e-05	–	0.000204	–	0.000593	0.000959	0.00144

— BigSolDB 2.1
